Source: patent US9302999B2, “Substituted triazoles as herbicides” (E. I. DU PONT DE NEMOURS AND COMPANY, priority 2012, dated 2016)

Key:
[1] = test system: kochia (Kochia scoparia); experiment: Test E pre-/postemergence: kochia; format: in vivo; conditions: Preemergence, scale 0 to 100
From the text: (§1) Seeds of plant species selected from corn (Zea mays), soybean (Glycine max), velvetleaf (Abutilon theophrasti), lambsquarters (Chenopodium album), poinsettia, wild (wild poinsettia, Euphorbia heterophylla), pigweed, palmer (palmer pigweed, Amaranthus palmeri), waterhemp (common waterhemp, Amaranthus rudis), smartweed (ladysthumb smartweed, Polygonum persicaria), surinam grass (Brachiaria decumbens), crabgrass, large (large crabgrass, Digitaria sanguinalis), crabgrass, Brazil (Brazilian crabgrass, Digitaria horizontalis), panicum, fall (fall panicum, Panicum dichotomiflorum), foxtail, giant (giant foxtail, Setaria faberii), foxtail, green (green foxtail, Setaria viridis), goosegrass (Eleusine indica), johnsongrass (Sorghum halepense), ragweed (common ragweed, Ambrosia elation), barnyardgrass (Echinochloa crus-galli), sandbur (southern sandbur, Cenchrus echinatus), arrowleaf sida (Sida rhombifolia), ryegrass, Italian (Italian ryegrass, Lolium multiflorum), dayflower, (VA) (Virginia dayflower, Commelina virginica), field bindweed (Convolvulus arvensis), cocklebur (common cocklebur, Xanthium strumarium), morningglory (Ipomoea coccinea), nightshade (eastern black nightshade, Solanum ptycanthum), kochia (Kochia scoparia), nutsedge, yellow (yellow nutsedge, Cyperus esculentus) and beggarticks (hairy beggarticks, Bidens pilosa) were planted into a silt loam soil and treated preemergence with test chemicals formulated in a non-phytotoxic solvent mixture which included a surfactant. At the same time, plants selected from these crop and weed species were planted in pots containing a growing medium comprising spaghnum peat moss, vermiculite, wetting agent and starter nutrients and treated with postemergence applications of some of the test chemicals formulated in the same manner. Plants ranged in height from 2 to 18 cm for postemergence treatments (1- to 4-leaf stage).
(§2) Treated plants and controls were maintained in a greenhouse for 14 to 21 days, after which time all species were compared to controls and visually evaluated. Plant response ratings, summarized in Table E, are based on a scale of 0 to 100 where 0 is no effect and 100 is complete control. A dash (-) response means no test result.

[2] = test system: johnsongrass (Sorghum halepense); experiment: Test E pre-/postemergence: johnsongrass; format: in vivo; conditions: Preemergence, scale 0 to 100
From the text: as §1, §2

[3] = test system: corn (Zea mays); experiment: Test E pre-/postemergence: corn; format: in vivo; conditions: scale 0 to 100
From the text: as §1, §2

[4] = test system: soybean (Glycine max); experiment: Test F pre-/postemergence: soybean; format: in vivo
From the text: Seeds of plant species selected from corn (Zea mays), soybean (Glycine max), velvetleaf (Abutilon theophrasti), lambsquarters (Chenopodium album), poinsettia, wild (wild poinsettia, Euphorbia heterophylla), pigweed, palmer (palmer pigweed, Amaranthus palmeri), waterhemp (common waterhemp, Amaranthus rudis), surinam grass (Brachiaria decumbens), crabgrass, Brazil (Brazilian crabgrass, Digitaria horizontalis), panicum, fall (fall panicum Panicum dichotomiflorum), crabgrass, large (large crabgrass, Digitaria sanguinalis), foxtail, giant (giant foxtail, Setaria faberii), foxtail, green (green foxtail Setaria viridis), goosegrass (Eleusine indica), ragweed (common ragweed, Ambrosia elatior), barnyardgrass (Echinochloa crus-galli), sandbur (southern sandbur, Cenchrus echinatus), arrowleaf sida (Sida rhombifolia), ryegrass, Italian (Italian ryegrass, Lolium multiflorum), dayflower, VA (Virginia (VA) dayflower, Commelina virginica), field bindweed (Convolvulus arvensis), cocklebur (common cocklebur, Xanthium strumarium), morningglory (Ipomoea coccinea), nightshade (eastern black nightshade, Solanum ptycanthum), kochia (Kochia scoparia), nutsedge, yellow (yellow nutsedge, Cyperus esculentus), johnsongrass (Sorghum halepense), smartweed (ladysthumb smartweed, Polygonum persicaria), and beggarticks (hairy beggarticks, Bidens pilosa), were planted into a silt loam soil and treated preemergence with test chemicals formulated in a non-phytotoxic solvent mixture which included a surfactant. At the same time, plants selected from these crop and weed species and also pigweed (Amaranthus retroflexus), waterhemp_RES1 (ALS/Triazine resistant common waterhemp, Amaranthus rudis) and waterhemp_RES2 (ALS/HPPD resistant common waterhemp, Amaranthus rudis) were planted in pots containing a planting medium comprising spaghnum peat moss, vermiculite, wetting agent and starter nutrients treated with postemergence applications of some of the test chemicals formulated in the same manner. Plants ranged in height from 2 to 18 cm for postemergence treatments (1- to 4-leaf stage).
as §2

[5] = test system: Barnyardgrass; experiment: Test C postemergence: barnyardgrass; format: in vivo, Echinochloa crus-galli
From the text: At the same time, plants selected from these crop and weed species and also barley (winter barley, Hordeum vulgare), canarygrass (Phalaris minor), chickweed (common chickweed, Stellaria media) windgrass (Apera spica-venti) and deadnettle (henbit deadnettle, Lamium amplexicaule) were planted in pots containing Redi-Earth® planting medium (Scotts Company, 14111 Scottslawn Road, Marysville, Ohio 43041) comprising spaghnum peat moss, vermiculite, wetting agent and starter nutrients and treated with postemergence applications of test chemicals formulated in the same manner. Plants ranged in height from 2 to 18 cm (1- to 4-leaf stage) for postemergence treatments.
(§3) Treated plants and controls were maintained in a greenhouse for 13 to 15 days, after which time all species were compared to controls and visually evaluated. Plant response ratings, summarized in Table C, are based on a scale of 0 to 100 where 0 is no effect and 100 is complete control. A dash (-) response means no test result.

[6] = test system: Oilseed Rape; experiment: Test C preemergence: oilseed rape; format: in vivo; conditions: scale of 0 to 100, 0 is no effect, 100 is complete control
From the text: Seeds of plant species selected from blackgrass (Alopecurus myosuroides), bromegrass, downy (downy bromegrass, Bromus tectorum), foxtail, green (green foxtail, Setaria viridis), ryegrass, Italian (Italian ryegrass, Lolium multiflorum), winter wheat (Triticum aestivum), wild oat (Avena fatua), galium (catchweed bedstraw, Galium aparine), bermudagrass (Cynodon dactylon), surinam grass (Brachiaria decumbens), cocklebur (common cocklebur, Xanthium strumarium), corn (Zea mays), large crabgrass (Digitaria sanguinalis), woolly cupgrass (Eriochloa villosa), foxtail, giant (giant foxtail, Setaria faberii), goosegrass (Eleusine indica), johnsongrass (Sorghum halepense), kochia (Kochia scoparia), lambsquarters (Chenopodium album), morningglory (Ipomoea coccinea), nightshade (eastern black nightshade, Solanum ptycanthum), nutsedge, yellow (yellow nutsedge, Cyperus esculentus), pigweed (Amaranthus retroflexus), ragweed (common ragweed, Ambrosia elation), soybean (Glycine max), common (oilseed) sunflower (Helianthus annuus), Russian thistle (Salsola kali) and velvetleaf (Abutilon theophrasti) were planted into a blend of loam soil and sand and treated preemergence with test chemicals formulated in a non-phytotoxic solvent mixture which included a surfactant.
as §3

[7] = Preemergence, 16 g ai/ha, scale 0 to 100 (0 no effect, 100 complete control)
[8] = Preemergence, 31 g ai/ha, scale 0 to 100 (0 no effect, 100 complete control)
[9] = Preemergence, 125 g ai/ha, scale 0 to 100
[10] = 31 g ai/ha, scale 0 to 100 (0 no effect, 100 complete control)
[11] = 62 g ai/ha, scale 0 to 100 (0 no effect, 100 complete control)

In the case of `Cc1nn(-c2ccc(F)cc2)nc1Cc1ccnc(C(F)(F)F)c1` [Compound 16, 4-[[2-(4-fluorophenyl)-5-methyl-2H-1,2,3-triazol-4-yl]methyl]-2-(trifluoromethyl)pyridine], the “Plant response rating: Kochia” value ([1]; 8 g ai/ha) is reported as 0, the “Plant response rating: Kochia” value ([1]; 16 g ai/ha) is reported as 20 and the “Plant response rating: Kochia” value ([1]; 31 g ai/ha) is reported as 70. The “Plant response rating: Kochia” value ([1]; 62 g ai/ha) was 100, the “Plant response rating: Kochia” value ([1]; 125 g ai/ha) was 100 and the “Plant response rating: Johnsongrass” value ([2]; 8 g ai/ha) was 0. For the same compound, the “Plant response rating: Johnsongrass” value ([2]; 16 g ai/ha) was 15, the “Plant response rating: Johnsongrass” value ([2]; 31 g ai/ha) was 20 and the “Plant response rating: Johnsongrass” value ([2]; 62 g ai/ha) was 40. For the same compound, the “Plant response rating: Johnsongrass” value ([2]; 125 g ai/ha) was 98, the “Plant response rating: Corn” value ([3]; Preemergence, 8 g ai/ha) was 0 and the “Plant response rating: Corn” value ([3]; Preemergence, 16 g ai/ha) was 0. The “Plant response rating: Corn” value ([3]; Preemergence, 31 g ai/ha) was 0, the “Plant response rating: Corn” value ([3]; Preemergence, 62 g ai/ha) was 20 and the “Plant response rating: Corn” value ([3]; Preemergence, 125 g ai/ha) was 20.

For `Cc1nn(-c2ccc(C(F)(F)F)cc2)nc1Cc1ccnc(C(F)(F)F)c1` [Compound 47, 4-[[5-methyl-2-[4-(trifluoromethyl)phenyl]-2H-1,2,3-triazol-4-yl]methyl]-2-(trifluoromethyl)pyridine], the “Plant response rating: Kochia” value ([1]; 16 g ai/ha) was 25, the “Plant response rating: Kochia” value ([1]; 31 g ai/ha) was 35 and the “Plant response rating: Kochia” value ([1]; 62 g ai/ha) was 100. The “Plant response rating: Kochia” value ([1]; 125 g ai/ha) was 100, the “Plant response rating: Kochia” value ([1]; 250 g ai/ha) was 100 and the “Plant response rating: Johnsongrass” value ([2]; 16 g ai/ha) was 25. For the same compound, the “Plant response rating: Johnsongrass” value ([2]; 31 g ai/ha) was 30, the “Plant response rating: Johnsongrass” value ([2]; 62 g ai/ha) was 35 and the “Plant response rating: Johnsongrass” value ([2]; 125 g ai/ha) was 40. The “Plant response rating: Johnsongrass” value ([2]; 250 g ai/ha) was 100, the “Plant response rating: Corn” value ([3]; Postemergence, 250 g ai/ha) was 20 and the “Plant response rating: Corn” value ([3]; Postemergence, 16 g ai/ha) was 10. The “Plant response rating: Corn” value ([3]; Postemergence, 31 g ai/ha) was 15, the “Plant response rating: Corn” value ([3]; Postemergence, 62 g ai/ha) was 20 and the “Plant response rating: Corn” value ([3]; Postemergence, 125 g ai/ha) was 20. For the same compound, the “Plant response rating: Corn” value ([3]; Preemergence, 16 g ai/ha) was 0, the “Plant response rating: Corn” value ([3]; Preemergence, 31 g ai/ha) was 15 and the “Plant response rating: Corn” value ([3]; Preemergence, 62 g ai/ha) was 20. For the same compound, the “Plant response rating: Corn” value ([3]; Preemergence, 125 g ai/ha) was 20 and the “Plant response rating: Corn” value ([3]; Preemergence, 250 g ai/ha) was 25.

For `Cc1nn(-c2ccc(F)cc2)nc1Oc1ccnc(C(F)(F)F)c1` [Compound 129, 4-[[2-(4-fluorophenyl)-5-methyl-2H-1,2,3-triazol-4-yl]oxy]-2-(trifluoromethyl)pyridine], the “Plant response rating: Kochia” value ([1]; 8 g ai/ha) was 35, the “Plant response rating: Kochia” value ([1]; 16 g ai/ha) was 35 and the “Plant response rating: Kochia” value ([1]; 31 g ai/ha) was 50. The “Plant response rating: Kochia” value ([1]; 62 g ai/ha) was 95, the “Plant response rating: Kochia” value ([1]; 125 g ai/ha) was 95 and the “Plant response rating: Johnsongrass” value ([2]; 8 g ai/ha) was 0. For the same compound, the “Plant response rating: Johnsongrass” value ([2]; 16 g ai/ha) was 20, the “Plant response rating: Johnsongrass” value ([2]; 31 g ai/ha) was 20 and the “Plant response rating: Johnsongrass” value ([2]; 62 g ai/ha) was 20. The “Plant response rating: Johnsongrass” value ([2]; 125 g ai/ha) was 25, the “Plant response rating: Corn” value ([3]; Preemergence, 8 g ai/ha) was 0 and the “Plant response rating: Corn” value ([3]; Preemergence, 16 g ai/ha) was 0. The “Plant response rating: Corn” value ([3]; Preemergence, 31 g ai/ha) was 0, the “Plant response rating: Corn” value ([3]; Preemergence, 62 g ai/ha) was 10 and the “Plant response rating: Corn” value ([3]; Preemergence, 125 g ai/ha) was 10.

In the case of `Fc1ccc(-n2nc(Cc3ccnc(C(F)(F)F)c3)c(OCC(F)(F)F)n2)cc1` [Compound 142], the “Plant response rating, Soybean” value [4, 7] is reported as 0, the “Plant response rating, Soybean” value [4, 8] is reported as 0 and the “Plant response rating, Soybean” value [4, 9] is reported as 25.

In the case of `Cc1nn(-c2ccc(F)c(F)c2)nc1Oc1ccnc(C(F)(F)F)c1` [Compound 145], the “Plant response rating, Soybean” value ([4]; Postemergence, 8 g ai/ha, scale 0 to 100) is reported as 25, the “Plant response rating, Soybean” value ([4]; Postemergence, 16 g ai/ha, scale 0 to 100) is reported as 35 and the “Plant response rating, Soybean” value ([4]; Postemergence, 31 g ai/ha, scale 0 to 100) is reported as 40. For the same compound, the “Plant response rating, Soybean” value ([4]; Postemergence, 62 g ai/ha, scale 0 to 100) was 50 and the “Plant response rating, Soybean” value ([4]; Postemergence, 125 g ai/ha, scale 0 to 100) was 60.

`CCCc1nn(-c2ccc(F)cc2)nc1Cc1ccnc(C(F)(F)F)c1` [Compound 153] was tested, and the “Plant response rating, Soybean” value [4, 7] was 0, the “Plant response rating, Soybean” value [4, 8] was 0 and the “Plant response rating, Soybean” value [4, 9] was 5. The “Plant response rating, Soybean” value ([4]; Preemergence, 250 g ai/ha, scale 0 to 100) was 25, the “Plant response rating, Barnyardgrass” value [5, 10] was 20 and the “Plant response rating, Barnyardgrass” value [5, 11] was 35. For the same compound, the “Plant response rating, Barnyardgrass” value ([5]; 250 g ai/ha, scale 0 to 100) was 75, the “Plant response rating, Oilseed Rape” value ([6]; 31 g ai/ha) was 90 and the “Plant response rating, Oilseed Rape” value ([6]; 62 g ai/ha) was 95.

`CCc1nn(-c2ccc(F)cc2)nc1Oc1ccnc(C(F)(F)F)c1` [Compound 166] was tested, and the “Plant response rating, Barnyardgrass” value [5, 10] was 10, the “Plant response rating, Barnyardgrass” value [5, 11] was 25 and the “Plant response rating, Barnyardgrass” value ([5]; 250 g ai/ha, scale 0 to 100) was 60. The “Plant response rating, Oilseed Rape” value ([6]; 62 g ai/ha) was 50.

For `CCCc1nn(-c2ccc(C(F)(F)F)c(F)c2)nc1Oc1ccnc(C(F)(F)F)c1` [Compound 185], the “Plant response rating, Barnyardgrass” value [5, 10] was 30, the “Plant response rating, Barnyardgrass” value [5, 11] was 35 and the “Plant response rating, Barnyardgrass” value ([5]; 250 g ai/ha, scale 0 to 100) was 80. For the same compound, the “Plant response rating, Oilseed Rape” value ([6]; 62 g ai/ha) was 85.

With `CCOc1nn(-c2ccc(Br)cc2)nc1Cc1ccnc(C(F)(F)F)c1` [Compound 189] the “Plant response rating, Oilseed Rape” value ([6]; 62 g ai/ha) was 70.
